Entries after “also recorded” stand apart in the source; their conditions may differ.
Legend:
[1] = system: retroperitoneal white adipose tissue; test: Norepinephrine stimulation in vivo: gene expression in white fat; parameters: species or system mice; conditions: NE 0.3 mg/kg s.c., 4 hours after injection, 30° C.
Procedure: Norepinephrine Stimulation In Vivo.
To measure the norepinephrine-induced gene expression changes in white fat, the mice after 6 weeks enrichment or control housing were anesthetized with pentobarbital (90 mg/kg, i.p.) and injected with 0.3 mg/kg norepinephrine (s.c.). The mice were maintained at 30° C. throughout the experiment. Fat pads were dissected 4 h after norepinephrine injection. qRT-PCR was used to profile gene expression in white fat.

white adipose tissue = test: Propranolol experiment: EE-induced gene program in white adipose tissue (qRT-PCR); assay type: in vivo, C57BL/6 mice; conditions: propranolol in drinking water (0.5 g/L), EE or control housing for 5 weeks
Text: We randomly assigned 40 C57BL/6 mice, 3 weeks of age, to live in enriched or control cages supplied with propranolol in drinking water (0.5 g/L). We collected blood 3 weeks after enrichment and dissected fat pads after 5 weeks enrichment.

Compound	Lep expression in EE retroperitoneal white adipose tissue ([1]; EE mice)	Ucp1 expression in EE retroperitoneal white adipose tissue ([1]; EE mice)	gene expression changes in control retroperitoneal white adipose tissue ([1]; control-housed mice)	EE-associated molecular features of white adipose tissue (white adipose tissue)
NC[C@H](O)c1ccc(O)c(O)c1 [NE, norepinephrine]	further reduced significantly	highly increased	failed to induce significant changes	–
CC(C)NCC(O)COc1cccc2ccccc12 (stereo not shown) [Propranolol, propranolol]	–	–	–	efficiently blocked the molecular features associated with EE; also recorded: blocked enrichment-associated molecular features of white adipose tissue

Source: patent US20140057837A1, “METHODS AND COMPOSITIONS FOR THE "BROWNING" OF WHITE FAT” (priority 2012, published 2014)
